# Measured values from patent publication US9145346B1, “Process for 2,2,4,4-tetramethylcyclobutane-1,3-diol crystallization” (Eastman Chemical Company, priority 2014, dated 2015).
# Assay: Solubility (saturated concentration) of cis-TMCD and trans-TMCD in various solvents, by gas chromatography
# Assay type: physicochemical
# Description: All concentrations were measured by gas chromatography. Water concentration was measured by Karl Fischer titrations.
# The solubility of cis-TMCD and trans-TMCD in various solvents was determined by charging cis-TMCD, trans-TMCD, and the solvent or solvents of interest into a 120 ml jacketed glass vessel. The vessel was equipped with a stir bar in order to provide mixing and the jacket was used to control the temperature of the vessel contents. The vessel was equipped with charging and sampling ports on top of the vessel.
# The slurry was allowed to stand for a time sufficient for the solids to saturate the solvent at the desired temperature. At that time, a sample of the solution was withdrawn from the cell using a fritted pipette so as to remove only the liquid phase. The sample was analyzed for cis-TMCD and trans-TMCD isomer content. These values represent the saturated concentration of each isomer at the sampling temperature.
# After this, the cell contents were heated to the next desired temperature and the contents were held for another time interval sufficient to allow the slurry to equilibrate. A sample was then taken of the solution and analyzed. Following this procedure, solubility data was collected up to the final desired temperature.
# The reported solubility of each isomer at a given temperature for a given solvent is expressed as a weight % relative to the saturated concentration of the isomer at the highest temperature reported for a given solvent.
compound,measurement,setting,value
"CC1(C)[C@H](O)C(C)(C)[C@H]1O [trans-TMCD, trans-2,2,4,4-tetramethylcyclobutane-1,3-diol]",Relative solubility,"2-Ethylhexanol, 0.7° C., relative to 89.8° C.",11% relative wt %
same,Relative solubility,"2-Ethylhexanol, 12.5° C., relative to 89.8° C.",15% relative wt %
same,Relative solubility,"2-Ethylhexanol, 24.7° C., relative to 89.8° C.",20% relative wt %
same,Relative solubility,"2-Ethylhexanol, 40.0° C., relative to 89.8° C.",28% relative wt %
same,Relative solubility,"2-Ethylhexanol, 49.9° C., relative to 89.8° C.",36% relative wt %
same,Relative solubility,"2-Ethylhexanol, 60.2° C., relative to 89.8° C.",45% relative wt %
same,Relative solubility,"2-Ethylhexanol, 69.3° C., relative to 89.8° C.",57% relative wt %
same,Relative solubility,"2-Ethylhexanol, 79.3° C., relative to 89.8° C.",75% relative wt %
same,Relative solubility,"2-Ethylhexanol, 89.8° C., relative to 89.8° C.",100% relative wt %
same,Relative solubility,"2-Ethylhexyl Acetate, 5.9° C., relative to 79.4° C.",6% relative wt %
same,Relative solubility,"2-Ethylhexyl Acetate, 15.5° C., relative to 79.4° C.",9% relative wt %
same,Relative solubility,"2-Ethylhexyl Acetate, 25.1° C., relative to 79.4° C.",12% relative wt %
same,Relative solubility,"2-Ethylhexyl Acetate, 40.5° C., relative to 79.4° C.",22% relative wt %
same,Relative solubility,"2-Ethylhexyl Acetate, 49.8° C., relative to 79.4° C.",32% relative wt %
same,Relative solubility,"2-Ethylhexyl Acetate, 49.9° C., relative to 79.4° C.",33% relative wt %
same,Relative solubility,"2-Ethylhexyl Acetate, 60.5° C., relative to 79.4° C.",48% relative wt %
same,Relative solubility,"2-Ethylhexyl Acetate, 70.3° C., relative to 79.4° C.",74% relative wt %
same,Relative solubility,"2-Ethylhexyl Acetate, 79.4° C., relative to 79.4° C.",100% relative wt %
same,Relative solubility,"2-Ethylhexyl Acetate, −5.0° C., relative to 79.4° C.",4% relative wt %
same,Relative solubility,"CHDM, 69.0° C., relative to 106.9° C.",54% relative wt %
same,Relative solubility,"CHDM, 79.2° C., relative to 106.9° C.",74% relative wt %
same,Relative solubility,"CHDM, 88.9° C., relative to 106.9° C.",80% relative wt %
same,Relative solubility,"CHDM, 95.6° C., relative to 106.9° C.",91% relative wt %
same,Relative solubility,"CHDM, 106.9° C., relative to 106.9° C.",100% relative wt %
same,Relative solubility,"Dimethyl Carbonate, 6.2° C., relative to 70.1° C.",7% relative wt %
same,Relative solubility,"Dimethyl Carbonate, 16.3° C., relative to 70.1° C.",9% relative wt %
same,Relative solubility,"Dimethyl Carbonate, 25.7° C., relative to 70.1° C.",14% relative wt %
same,Relative solubility,"Dimethyl Carbonate, 40.5° C., relative to 70.1° C.",27% relative wt %
same,Relative solubility,"Dimethyl Carbonate, 54.7° C., relative to 70.1° C.",54% relative wt %
same,Relative solubility,"Dimethyl Carbonate, 70.1° C., relative to 70.1° C.",100% relative wt %
same,Relative solubility,"Ethanol, 5.3° C., relative to 60.3° C.",51% relative wt %
same,Relative solubility,"Ethanol, 14.3° C., relative to 60.3° C.",55% relative wt %
same,Relative solubility,"Ethanol, 25.5° C., relative to 60.3° C.",76% relative wt %
same,Relative solubility,"Ethanol, 39.9° C., relative to 60.3° C.",82% relative wt %
same,Relative solubility,"Ethanol, 50.1° C., relative to 60.3° C.",92% relative wt %
same,Relative solubility,"Ethanol, 60.3° C., relative to 60.3° C.",100% relative wt %
same,Relative solubility,"Ethyl Acetate, 4.2° C., relative to 54.9° C.",16% relative wt %
same,Relative solubility,"Ethyl Acetate, 15.0° C., relative to 54.9° C.",25% relative wt %
same,Relative solubility,"Ethyl Acetate, 26.2° C., relative to 54.9° C.",38% relative wt %
same,Relative solubility,"Ethyl Acetate, 40.5° C., relative to 54.9° C.",62% relative wt %
same,Relative solubility,"Ethyl Acetate, 54.9° C., relative to 54.9° C.",100% relative wt %
same,Relative solubility,"Ethyl Acetate, −5.1° C., relative to 54.9° C.",12% relative wt %
same,Relative solubility,"Ethylene Glycol, 26.5° C., relative to 91.4° C.",24% relative wt %
same,Relative solubility,"Ethylene Glycol, 36.2° C., relative to 91.4° C.",32% relative wt %
same,Relative solubility,"Ethylene Glycol, 48.5° C., relative to 91.4° C.",44% relative wt %
same,Relative solubility,"Ethylene Glycol, 61.5° C., relative to 91.4° C.",61% relative wt %
same,Relative solubility,"Ethylene Glycol, 72.1° C., relative to 91.4° C.",68% relative wt %
same,Relative solubility,"Ethylene Glycol, 82.2° C., relative to 91.4° C.",82% relative wt %
same,Relative solubility,"Methanol, 16.9° C., relative to 41.3° C.",82% relative wt %
same,Relative solubility,"Methanol, 25.6° C., relative to 41.3° C.",89% relative wt %
same,Relative solubility,"Methanol, 41.3° C., relative to 41.3° C.",100% relative wt %
same,Relative solubility,"Methanol, −2.5° C., relative to 41.3° C.",70% relative wt %
same,Relative solubility,"Methyl Acetate, 5.9° C., relative to 49.8° C.",14% relative wt %
same,Relative solubility,"Methyl Acetate, 15.5° C., relative to 49.8° C.",22% relative wt %
same,Relative solubility,"Methyl Acetate, 25.1° C., relative to 49.8° C.",33% relative wt %
same,Relative solubility,"Methyl Acetate, 40.5° C., relative to 49.8° C.",59% relative wt %
same,Relative solubility,"Methyl Acetate, 49.8° C., relative to 49.8° C.",100% relative wt %
same,Relative solubility,"Methyl Acetate, −5.0° C., relative to 49.8° C.",9% relative wt %
same,Relative solubility,"Methyl i-Butyl Carbinol, 9.4° C., relative to 81.9° C.",18% relative wt %
same,Relative solubility,"Methyl i-Butyl Carbinol, 20.4° C., relative to 81.9° C.",23% relative wt %
same,Relative solubility,"Methyl i-Butyl Carbinol, 31.1° C., relative to 81.9° C.",29% relative wt %
same,Relative solubility,"Methyl i-Butyl Carbinol, 40.0° C., relative to 81.9° C.",39% relative wt %
same,Relative solubility,"Methyl i-Butyl Carbinol, 49.5° C., relative to 81.9° C.",47% relative wt %
same,Relative solubility,"Methyl i-Butyl Carbinol, 60.0° C., relative to 81.9° C.",60% relative wt %
same,Relative solubility,"Methyl i-Butyl Carbinol, 69.5° C., relative to 81.9° C.",77% relative wt %
same,Relative solubility,"Methyl i-Butyl Carbinol, 81.9° C., relative to 81.9° C.",100% relative wt %
same,Relative solubility,"i-Butyl Acetate, 4.8° C., relative to 90.1° C.",6% relative wt %
same,Relative solubility,"i-Butyl Acetate, 16.9° C., relative to 90.1° C.",9% relative wt %
same,Relative solubility,"i-Butyl Acetate, 25.6° C., relative to 90.1° C.",12% relative wt %
same,Relative solubility,"i-Butyl Acetate, 41.3° C., relative to 90.1° C.",21% relative wt %
same,Relative solubility,"i-Butyl Acetate, 56.2° C., relative to 90.1° C.",36% relative wt %
same,Relative solubility,"i-Butyl Acetate, 70.2° C., relative to 90.1° C.",58% relative wt %
same,Relative solubility,"i-Butyl Acetate, 90.1° C., relative to 90.1° C.",100% relative wt %
same,Relative solubility,"i-Butyl Acetate, −2.5° C., relative to 90.1° C.",5% relative wt %
same,Relative solubility,"n-Butanol, 5.9° C., relative to 60.5° C.",44% relative wt %
same,Relative solubility,"n-Butanol, 15.5° C., relative to 60.5° C.",49% relative wt %
same,Relative solubility,"n-Butanol, 25.1° C., relative to 60.5° C.",58% relative wt %
same,Relative solubility,"n-Butanol, 40.5° C., relative to 60.5° C.",72% relative wt %
same,Relative solubility,"n-Butanol, 49.8° C., relative to 60.5° C.",86% relative wt %
same,Relative solubility,"n-Butanol, 49.9° C., relative to 60.5° C.",86% relative wt %
same,Relative solubility,"n-Butanol, 60.5° C., relative to 60.5° C.",100% relative wt %
same,Relative solubility,"n-Butanol, −5.0° C., relative to 60.5° C.",39% relative wt %
same,Relative solubility,"n-Butyl Propionate, 6.5° C., relative to 91.9° C.",5% relative wt %
same,Relative solubility,"n-Butyl Propionate, 16.8° C., relative to 91.9° C.",8% relative wt %
same,Relative solubility,"n-Butyl Propionate, 27.7° C., relative to 91.9° C.",13% relative wt %
same,Relative solubility,"n-Butyl Propionate, 41.7° C. (sample 4), relative to 91.9° C.",16% relative wt %
same,Relative solubility,"n-Butyl Propionate, 41.7° C. (sample 5), relative to 91.9° C.",22% relative wt %
same,Relative solubility,"n-Butyl Propionate, 52.0° C., relative to 91.9° C.",32% relative wt %
same,Relative solubility,"n-Butyl Propionate, 61.5° C., relative to 91.9° C.",44% relative wt %
same,Relative solubility,"n-Butyl Propionate, 69.1° C., relative to 91.9° C.",59% relative wt %
same,Relative solubility,"n-Butyl Propionate, 80.7° C., relative to 91.9° C.",78% relative wt %
same,Relative solubility,"n-Butyl Propionate, 91.9° C., relative to 91.9° C.",100% relative wt %
same,Relative solubility,"n-Propyl Propionate, 7.0° C., relative to 72.2° C.",11% relative wt %
same,Relative solubility,"n-Propyl Propionate, 17.1° C., relative to 72.2° C.",15% relative wt %
same,Relative solubility,"n-Propyl Propionate, 26.7° C., relative to 72.2° C.",22% relative wt %
same,Relative solubility,"n-Propyl Propionate, 37.4° C., relative to 72.2° C.",29% relative wt %
same,Relative solubility,"n-Propyl Propionate, 42.4° C., relative to 72.2° C.",37% relative wt %
same,Relative solubility,"n-Propyl Propionate, 52.2° C., relative to 72.2° C.",53% relative wt %
same,Relative solubility,"n-Propyl Propionate, 62.9° C., relative to 72.2° C.",76% relative wt %
same,Relative solubility,"n-Propyl Propionate, 72.2° C., relative to 72.2° C.",100% relative wt %
